# Data from patent US12378208B2, “N-substituted oseltamivir derivatives with antimicrobial activity” (THE HONG KONG POLYTECHNIC UNIVERSITY, priority 2019, dated 2025).
# Legend:
# [1] = test system: oseltamivir-resistant strain 11v17178; experiment: Plaque assay in MDCK cells; format: cell-based, influenza A virus (H1N1 pandemic)
# [2] = test system: oseltamivir-resistant strain 09v71923; experiment: Plaque assay in MDCK cells; format: cell-based, influenza A virus (H1N1 pandemic)
# [3] = day 3, vs DMSO vehicle, two concentrations
SMILES,"plaque size ([1]; 0.1 nM oseltamivir, day 3)","plaque size ([2]; 0.2 nM oseltamivir, day 3)","plaque size [2, 3]","plaque size [1, 3]"
CCOC(=O)C1=C[C@@H](OC(CC)CC)[C@H](NC(C)=O)[C@@H](N)C1 [oseltamivir],significant reduction,larger plaque size,could not reduce the plaque size,
"CCC(CC)O[C@@H]1C=C(C(=O)O)C[C@H](NCc2ccc(-c3c(C)noc3C)o2)[C@H]1NC(C)=O [Compound S22, (3R,4R,5S)-4-acetamido-5-(((5-(3,5-dimethylisoxazol-4-yl)furan-2-yl)methyl)amino)-3-(pentan-3-yloxy)cyclohex-1-ene-1-carboxylic acid]",,,No inhibition effect,No inhibition effect
"CCC(CC)O[C@@H]1C=C(C(=O)O)C[C@H](NCc2noc(-c3ccco3)n2)[C@H]1NC(C)=O [Compound S7, (3R,4R,5S)-4-acetamido-5-(((5-(furan-2-yl)-1,2,4-oxadiazol-3-yl)methyl)amino)-3-(pentan-3-yloxy)cyclohex-1-ene-1-carboxylic acid]",,,No inhibition effect,No inhibition effect
